Tested on: colon carcinoma PDX model Co9689A
Assay: KcAng(1-7) on growth of colon carcinoma PDX Co9689A in mice
Type: in vivo, NMRI nu/nu mice (human PDX)
Details: for T/C (treated tumor volume as percent of vehicle control): day 28 (day 41 of study)
Method: In vivo studies were conducted at EPO GmbH Berlin. Large studies (FIG. 1A, 2, 3, 4, 5) comprised 3 groups of 10 mice/group and 5 animals as reserve, as outlined in Table 1. Smaller studies (FIG. 1B, 1C, 1D) comprised 2 groups of mice of 3 mice per group. The animals were allocated to the various treatment groups (e.g. 0.2 μg/kg and 30 μg/kg) with a maximum of 10 animals per group. […] The groups received subcutaneous (s.c.) drug injection (for max. 28 days) as outlined in the Table 1.
NMRI nu/nu mice were used in this study. The animals were female at age of 6 to 8 weeks. The respective PDX tumors were inoculated subcutaneously (s.c.), and the tumors were grown to achieve palpable tumor sizes before start of the respective treatments. The PDX included breast (MaCa4151), colon (Co9689A), head & neck (HN10309), lung (Lu7433) and ovarian (OvCa13329) cancer (Table 2).
Treatment with KcAng(1-7) was started with palpable tumors after the randomization of animals regarding tumor volume. KcAng(1-7) was applied s.c. by daily injections at […] or 30 μg/kg dose for a maximum of 28 days (or earlier as defined by the humane end point for the study).
KcAng(1-7) was prepared as follows: The compounds was suspended in sterile PBS resulting in a clear solution. The remains of this formulation were stored at 4° C.
Tumor growth stimulatory or inhibitory activity of the KcAng(1-7) was evaluated by determination of tumor volumes (TV). During the study, tumor volumes and body weight were measured twice a week, and the ratio of the mean tumor volumes between the compound-treated group and the vehicle-treated group (T/C) was calculated.
Tumor volume=(tumor width)×(tumor width)×(tumor length)+2
T/C=T÷C • T: Mean estimated tumor volume of the compound-treated group • C: Mean estimated tumor volume of the vehicle-treated group

[1] = Gr. B 0.2 μg/kg/d s.c., Meas. 1
[2] = Gr. B 0.2 μg/kg/d s.c., Meas. 2
[3] = Gr. B 0.2 μg/kg/d s.c., Meas. 3
[4] = Gr. B 0.2 μg/kg/d s.c., Meas. 4
[5] = Gr. B 0.2 μg/kg/d s.c., Meas. 5
[6] = Gr. B 0.2 μg/kg/d s.c., Meas. 6
[7] = Gr. B 0.2 μg/kg/d s.c., Meas. 7
[8] = Gr. B 0.2 μg/kg/d s.c., Meas. 8
[9] = Gr. B 0.2 μg/kg/d s.c., Meas. 9 (day 28, day 41 of study)
[10] = Gr. C 30 μg/kg/d s.c., Meas. 9 (day 28, day 41 of study)

Substance: Lys-Asp-Arg-Val-Abu/Ala-Ile-His-Abu/Ala (KDRVAIHA; not fully specified; cyclic thioether (Abu/Ala bridge); VARIANT (5)..(5) /replace=“Abu”; VARIANT (8)..(8) /replace=“Abu”; SITE (1)..(8) /note=“Variant residues given in the sequence have no preference with respect to those in the annotations for variant positions”) [KcAng(1-7)]
- T/C (treated tumor volume as percent of vehicle control) (0.2 μg/kg): 58%
- T/C (treated tumor volume as percent of vehicle control) (30 μg/kg): 45%
- effect on tumor growth (0.2 and 30 μg/kg, 28 days): statistically significant and dose dependent reduction in tumor growth
- RTV Mean [1]: 1
- RTV Median [1]: 1
- T/C [1]: 99.5%
- Tumor Vol. Mean [1]: 0.093 cm^3
- Tumor Vol. Median [1]: 0.09 cm^3
- RTV Mean [2]: 1.2
- RTV Median [2]: 1.2
- T/C [2]: 90.3%
- Tumor Vol. Mean [2]: 0.107 cm^3
- Tumor Vol. Median [2]: 0.108 cm^3
- RTV Mean [3]: 1.4
- RTV Median [3]: 1.4
- T/C [3]: 87.4%
- Tumor Vol. Mean [3]: 0.132 cm^3
- Tumor Vol. Median [3]: 0.126 cm^3
- RTV Mean [4]: 2
- RTV Median [4]: 1.9
- T/C [4]: 87.1%
- Tumor Vol. Mean [4]: 0.188 cm^3
- Tumor Vol. Median [4]: 0.139 cm^3
- RTV Mean [5]: 2.7
- RTV Median [5]: 2.6
- T/C [5]: 84.6%
- Tumor Vol. Mean [5]: 0.252 cm^3
- Tumor Vol. Median [5]: 0.234 cm^3
- RTV Mean [6]: 2.8
- RTV Median [6]: 2.7
- T/C [6]: 80.7%
- Tumor Vol. Mean [6]: 0.267 cm^3
- Tumor Vol. Median [6]: 0.238 cm^3
- RTV Mean [7]: 3.2
- RTV Median [7]: 2.8
- T/C [7]: 71.6%
- Tumor Vol. Mean [7]: 0.272 cm^3
- Tumor Vol. Median [7]: 0.214 cm^3
- RTV Mean [8]: 2
- RTV Median [8]: 1.9
- T/C [8]: 58.6%
- Tumor Vol. Mean [8]: 0.192 cm^3
- Tumor Vol. Median [8]: 0.178 cm^3
- RTV Mean [9]: 2.7
- RTV Median [9]: 2.5
- T/C [9]: 58.1%
- Tumor Vol. Mean [9]: 0.257 cm^3
- Tumor Vol. Median [9]: 0.219 cm^3
- RTV Mean (Gr. C 30 μg/kg/d s.c., Meas. 1): 1
- RTV Median (Gr. C 30 μg/kg/d s.c., Meas. 1): 1
- T/C (Gr. C 30 μg/kg/d s.c., Meas. 1): 99.5%
- Tumor Vol. Mean (Gr. C 30 μg/kg/d s.c., Meas. 1): 0.093 cm^3
- Tumor Vol. Median (Gr. C 30 μg/kg/d s.c., Meas. 1): 0.097 cm^3
- RTV Mean (Gr. C 30 μg/kg/d s.c., Meas. 2): 1.2
- RTV Median (Gr. C 30 μg/kg/d s.c., Meas. 2): 1.2
- T/C (Gr. C 30 μg/kg/d s.c., Meas. 2): 91.5%
- Tumor Vol. Mean (Gr. C 30 μg/kg/d s.c., Meas. 2): 0.108 cm^3
- Tumor Vol. Median (Gr. C 30 μg/kg/d s.c., Meas. 2): 0.105 cm^3
- RTV Mean (Gr. C 30 μg/kg/d s.c., Meas. 3): 1.3
- RTV Median (Gr. C 30 μg/kg/d s.c., Meas. 3): 1.3
- T/C (Gr. C 30 μg/kg/d s.c., Meas. 3): 80.9%
- Tumor Vol. Mean (Gr. C 30 μg/kg/d s.c., Meas. 3): 0.122 cm^3
- Tumor Vol. Median (Gr. C 30 μg/kg/d s.c., Meas. 3): 0.111 cm^3
- RTV Mean (Gr. C 30 μg/kg/d s.c., Meas. 4): 1.7
- RTV Median (Gr. C 30 μg/kg/d s.c., Meas. 4): 1.5
- T/C (Gr. C 30 μg/kg/d s.c., Meas. 4): 72.1%
- Tumor Vol. Mean (Gr. C 30 μg/kg/d s.c., Meas. 4): 0.156 cm^3
- Tumor Vol. Median (Gr. C 30 μg/kg/d s.c., Meas. 4): 0.125 cm^3
- RTV Mean (Gr. C 30 μg/kg/d s.c., Meas. 5): 2.2
- RTV Median (Gr. C 30 μg/kg/d s.c., Meas. 5): 2.3
- T/C (Gr. C 30 μg/kg/d s.c., Meas. 5): 68.6%
- Tumor Vol. Mean (Gr. C 30 μg/kg/d s.c., Meas. 5): 0.205 cm^3
- Tumor Vol. Median (Gr. C 30 μg/kg/d s.c., Meas. 5): 0.184 cm^3
- RTV Mean (Gr. C 30 μg/kg/d s.c., Meas. 6): 2.5
- RTV Median (Gr. C 30 μg/kg/d s.c., Meas. 6): 2.4
- T/C (Gr. C 30 μg/kg/d s.c., Meas. 6): 72.5%
- Tumor Vol. Mean (Gr. C 30 μg/kg/d s.c., Meas. 6): 0.24 cm^3
- Tumor Vol. Median (Gr. C 30 μg/kg/d s.c., Meas. 6): 0.199 cm^3
- RTV Mean (Gr. C 30 μg/kg/d s.c., Meas. 7): 3
- RTV Median (Gr. C 30 μg/kg/d s.c., Meas. 7): 2.8
- T/C (Gr. C 30 μg/kg/d s.c., Meas. 7): 75.6%
- Tumor Vol. Mean (Gr. C 30 μg/kg/d s.c., Meas. 7): 0.287 cm^3
- Tumor Vol. Median (Gr. C 30 μg/kg/d s.c., Meas. 7): 0.213 cm^3
- RTV Mean (Gr. C 30 μg/kg/d s.c., Meas. 8): 2.2
- RTV Median (Gr. C 30 μg/kg/d s.c., Meas. 8): 1.9
- T/C (Gr. C 30 μg/kg/d s.c., Meas. 8): 63.3%
- Tumor Vol. Mean (Gr. C 30 μg/kg/d s.c., Meas. 8): 0.208 cm^3
- Tumor Vol. Median (Gr. C 30 μg/kg/d s.c., Meas. 8): 0.155 cm^3
- RTV Mean [10]: 2.1
- RTV Median [10]: 1.8
- T/C [10]: 45.3%
- Tumor Vol. Mean [10]: 0.201 cm^3
- Tumor Vol. Median [10]: 0.134 cm^3
- retarded tumor growth (colon carcinoma PDX upon treatment as in Example 1): ~40%
